Columns and labels:
[1] = test system: Human multiple myeloma cell line U266; assay: Anticancer effect, viable cells by trypan blue assay (24-well plates, FIG. 14-19); type: cell-based; conditions: 5 μM each, 96 hours
Procedure: Human multiple myeloma cell line U266 was subcultured and maintained in RPMI 1640 medium supplemented with 10% fetal bovine serum (FCS) under conditions of 37° C. and water vapor-saturated 5% CO2. The cells were maintained in the logarithmic growth phase. The RPMI 1640 medium used for culture was prepared as follows: per liter of ultrapure water, RPMI 1640 medium (10.4 g), HEPES (2.38 g), injectable penicillin G potassium (100,000 units), streptomycin sulfate injectable (100 mg) and NaHCO3 (2.0 g) were suspended and then filter-sterilized. Then, the RPMI 1640 medium was supplemented with FCS and used for cell culture. Per liter of ultrapure water, NaCl (8.0 g), KCl (0.2 g), Na2HPO4 (1.15 g) and KH2PO4 (0.2 g) were dissolved to prepare PBS, which was then sterilized in an autoclave.
Eriodictyol and structural analogs thereof, i.e., naringenin and hesperetin, as well as glycosides thereof, i.e., eriocitrin, naringin and hesperidin were each adjusted to 5 mM with 100% dimethyl sulfoxide (DMSO) and stored at −30° C. EGCG and (−)-gallocatechin gallate (GCG) were each adjusted to 5 mM with ultrapure water and stored at −30° C. EGCG 3″Me was adjusted to 5 mM with 10% DMSO dH2O and stored at −30° C.
U266 adjusted to 5×10^4 cells/mL in RPMI 1640 containing 1% FCS, SOD (5 U/mL) and catalase (200 U/mL) was seeded in 24-well plates and cultured for 96 hours in the presence of EGCG and analogs thereof or eriodictyol and analogs thereof added at a final concentration of 5 μM each. After culture, viable cells were counted by trypan blue assay.
For statistical processing of the experimental results, Student's test was used and P<0.05 was considered statistically significant in comparison with control data in the vehicle group.

[2] = test system: 3-hydroxy-3-methyl-glutaryl-CoA reductase (HMGCR); assay: Liver HMGCR mRNA by real-time PCR in HF/HS diet-fed mice; type: in vivo, mouse; conditions: HF/HS diet-fed C57BL/6J mice; Yabukita 0.2% and/or eriodictyol 0.45 g/kg diet; 8 weeks; FIG. 6
Source text: Male C57BL/6J mice at 12 weeks of age were preliminarily kept for 1 week and then divided into 5 groups such that the average body weight was equal in all groups, i.e., a control (AIN-93G-based diet) group, a HF/HS (high-fat high-sucrose diet) group, a Yabukita (0.2%) (HF/HS+Yabukita) group, an eriodictyol (HF/HS+eriodictyol) group, and a Yabukita+eriodictyol (HF/HS+Yabukita+eriodictyol) group. A feed supplemented with Yabukita (0.2%) and eriodictyol (0.45 g/kg diet) was given to the mice. The feed was given in an amount of 4 g/day and the mice were kept for 8 weeks under ad libitum drinking conditions. After being fasted for 16 hours, the mice were sacrificed by abdominal aortic puncture under isoflurane anesthesia. […] Yabukita and eriodictyol were examined for their effect on cholesterol metabolism-related gene expression in the liver of high-fat high-sucrose diet-fed obese model mice. C57BL/6J mice were preliminarily kept for 1 week and then divided into the respective groups such that the average body weight was equal in all groups. Each feed was given in an amount of 4 g/day and the mice were kept for 8 weeks under ad libitum drinking conditions. After being fasted for 16 hours, the mice were sacrificed by abdominal aortic puncture under isoflurane anesthesia.

[3] = test system: MCP-1; assay: Fat tissue MCP-1 mRNA by real-time PCR in HF/HS diet-fed mice; type: in vivo, mouse; conditions: C57BL/6J mice; Yabukita 0.2% and/or eriodictyol 0.45 g/kg diet; 8 weeks; FIG. 5
Source text: Male C57BL/6J mice at 12 weeks of age were preliminarily kept for 1 week and then divided into 5 groups such that the average body weight was equal in all groups, i.e., a control (AIN-93G-based diet) group, a HF/HS (high-fat high-sucrose diet) group, a Yabukita (0.2%) (HF/HS+Yabukita) group, an eriodictyol (HF/HS+eriodictyol) group, and a Yabukita+eriodictyol (HF/HS+Yabukita+eriodictyol) group. A feed supplemented with Yabukita (0.2%) and eriodictyol (0.45 g/kg diet) was given to the mice. The feed was given in an amount of 4 g/day and the mice were kept for 8 weeks under ad libitum drinking conditions. After being fasted for 16 hours, the mice were sacrificed by abdominal aortic puncture under isoflurane anesthesia. The collected blood samples were allowed to stand at 37° C. for 2 hours to cause coagulation and then centrifuged at 4° C. at 2000×g for 15 minutes to collect serum fractions. The values of serum total cholesterol and LDL were measured. […] Yabukita and eriodictyol were examined for their effect on obesity in high-fat high-sucrose diet-fed obese model mice. […] After being measured for their body weight, the mice were fasted for 16 hours and then sacrificed by abdominal aortic puncture under isoflurane anesthesia. […] The values of serum total cholesterol and LDL were measured.

## O=C1C[C@@H](c2ccc(O)c(O)c2)Oc2cc(O)cc(O)c21 [eriodictyol]
[1]; combined with EGCG
  enhancement of the anticancer effect (viable cells) of EGCG: remarkably enhance the anticancer effect
[1]; combined with EGCG 3″Me
  enhancement of the anticancer effect (viable cells) of EGCG 3″Me: remarkably enhance the anticancer effect
[1]; combined with GCG (gallocatechin gallate)
  enhancement of the anticancer effect (viable cells) of GCG: remarkably enhance the anticancer effect
[2]
  mRNA expression level of HMGCR in the liver: no effect
[3]
  high-fat high-sucrose diet-induced increase in fat tissue MCP-1 expression level (mRNA): no effect

— patent US10251408B2, “Catechin function enhancement method” (KYUSHU UNIVERSITY, NATIONAL UNIVERSITY CORPORATION, priority 2014, dated 2019)
